Measured values taken from paper PMC5218480 (PLoS ONE, 2017).

System: MV-4-11 cells
Assay: Gene expression microarray analysis (Affymetrix PrimeView) and GSEA
Assay type: cell-based, human
Conditions: ProbeSet 11717523_x_at; LIST B

Nc1ncn([C@@H]2O[C@H](CO)[C@@H](O)[C@H]2O)c(=O)n1 [azacitidine]
RFU, TMEM50B: 81.58 RFU
